# Results: patent publication US5852213A, “Mercaptoketones and mercaptoalcohols and a process for their preparation” (American Cyanamid Company, priority 1997, dated 1998)
# What was measured:
# stromelysin = conditions: PCT application WO 9407481; cited from earlier work
# [1] = biological target: T1, human recombinant fibroblast collagenase (Homo sapiens, UniProt P03956); experiment: Collagenase Inhibition in vitro; type: biochemical; conditions: read-out: Collagenase IC50 (nM) or % inhibition: % inhibition
# T1 construct: human recombinant fibroblast collagenase (truncated, mw 18,828, WAR, Radnor)
# T1 sequence (P03956 100-269 limits assumed): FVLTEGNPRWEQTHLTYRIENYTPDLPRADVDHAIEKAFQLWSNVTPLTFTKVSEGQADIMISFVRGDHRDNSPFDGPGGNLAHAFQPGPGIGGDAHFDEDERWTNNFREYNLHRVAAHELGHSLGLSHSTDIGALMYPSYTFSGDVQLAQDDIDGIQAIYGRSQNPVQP
# Experimental: Collagenase Inhibition in vitro
# The assay is based on the cleavage of a peptide substrate ((Dnp-Pro-Cha-Gly-Cys(Me)-His-Ala-Lys(NMa)-NH2), Peptide International, Inc.) by collagenase releasing the fluorescent NMa group which is quantitated on the fluorometer. Dnp quenches the NMa fluorescence in the intact substrate. […] Substrate is dissolved in methanol and stored frozen in 1 mM aliquots. […] For the assay, substrate is dissolved in HCBC buffer to a final concentration of 10 μM and collagenase to a final concentration of 5 nM. Compounds are dissolved in methanol, DMSO, or HCBC. The methanol and DMSO are diluted in HCBC to <1%. Compounds are added to the 96 well plate containing enzyme and the reaction is started by the addition of substrate.
# The slope of the line is calculated and represents the reaction rate.
# (§1) The linearity of the reaction rate is confirmed (r^2 >0.85). The mean of the control rate is calculated and compared for statistical significance (p<0.05) with drug-treated rates using Dunnett's multiple comparison test.
# [2] = tested on: human recombinant stromelysin; experiment: Stromelysin Inhibition in vitro; type: biochemical
# Experimental: Stromelysin Inhibition in vitro.
# The increase in OD405 is plotted and the slope of the line is calculated which represents the reaction rate.
# as §1
# Collangenase I = experiment: In vivo MMP Inhibition (enzyme in implanted dialysis tubing); design: species or system rat (Sprague-Dawley) or mouse (CD-1)
# Experimental: A 2 cm piece of dialysis tubing (molecular weight cut-off 12-14,000, 10 mm flat width) containing matrix metalloproteinase enzyme (stromelysin, collagenase or gelatinase in 0.5 mL of buffer) is implanted either ip or sc (in the back) of a rat (Sprague-Dawley, 150-200 g) or mouse (CD-1, 25-50 g) under anesthesia. Drugs are administered PO, IP, SC or IV through a canula in the jugular vein. Drugs are administered in a dose volume of 0.1 to 0.25 mL/animal. Contents of the dialysis tubing is collected and enzyme activity assayed.
# Enzyme reaction rates for each dialysis tube are calculated. Tubes from at least 3 different animals are used to calculate the mean±sem. Statistical significance (p<0.05) of vehicle-treated animals versus drug-treated animals is determined by analysis of variance. (Agents and Actions 21: 331, 1987)
# MMP = conditions: EP 0322,184 A2; cited from earlier work
compound,measurement,setting,value
CC(C)C[C@H](NC(=O)[C@@H](CS)CCc1ccccc1)C(=O)Nc1ccccc1,inhibitor of the MMP stromelysin,stromelysin,moderate inhibitor
"CCCCCCC[C@H](C[C@@H](O)CS)C(=O)N[C@H](C(=O)NC)C(C)(C)C [Example 37, (2R)-2-((2R)-2-Hydroxy-3-mercaptopropyl)nonanoic acid ((1S)-2,2-dimethyl-1-methylcarbamoylpropyl)amide]",inhibition at 1 µM,[1],72%
"CCCCCCC[C@H](C[C@H](O)CS)C(=O)N[C@H](C(=O)NC)C(C)(C)C [Example 38, (2R)-2-((2S)-2-Hydroxy-3-mercaptopropyl)nonanoic acid ((1S)-2,2-dimethyl-l-methylcarbamoylpropyl)amide]",Stromelysin IC50 (nM) or % inhibition: % inhibition,[2]; @ 0.1 μM,96%
same,in vivo % Collangenase I inhibition,Collangenase I; 50 mpk (milligrams/kilogram),22.2%
"CNC(=O)[C@@H](NC(=O)[C@H](CC(C)C)C[C@@H](O)CS)C(C)(C)C [Example 39, (2R,4R)-4-Hydroxy-2-isobutyl-5-mercaptopentanoic acid ((1S)-2,2-dimethyl-1-methylcarbamoylpropyl)amide]",Stromelysin IC50 (nM) or % inhibition: % inhibition,[2]; @ 300 nM,6%
same,in vivo % Collangenase I inhibition,Collangenase I; 50 mpk (milligrams/kilogram),20.4%
"CNC(=O)[C@@H](NC(=O)[C@H](CC(C)C)C[C@H](O)CS)C(C)(C)C [Example 40, (2R,4S)-4-Hydroxy-2-isobutyl-5-mercaptopentanoic acid ((1S)-2,2-dimethyl-1-methylcarbamoylpropyl)amide]",in vivo % Collangenase I inhibition,Collangenase I; 50 mpk (milligrams/kilogram),84.8%
"CCCCCCC[C@H](CC(=O)CS)C(=O)N[C@H](C(=O)NC)C(C)(C)C [Example 43, (2R)-2-(3-Mercapto-2-oxopropyl)nonanoic acid ((1S)-2,2-dimethyl-1-methylcarbamoylpropyl)amide]",IC50,[2]; read-out: Stromelysin IC50 (nM) or % inhibition: IC50,28 nM
same,in vivo % Collangenase I inhibition,Collangenase I; 50 mpk (milligrams/kilogram),0.73%
"CNC(=O)[C@@H](NC(=O)[C@@H](CC(=O)CS)CC(C)C)C(C)(C)C [Example 44, (2R)-2-Isobutyl-5-mercapto-4-oxopentanoic acid ((1S)-2,2-dimethyl-1-methylcarbamoylpropyl)amide]",Stromelysin IC50 (nM) or % inhibition: % inhibition,[2]; @ 1 μM,58%
same,in vivo % Collangenase I inhibition,Collangenase I; 60 mpk (milligrams/kilogram),4.8%
CNC(=O)[C@H](Cc1ccc(OC)cc1)NC(=O)[C@H](CC(C)C)C(S)CC(C)=O (some centres unmarked) [compound where P is 2-oxopropyl],times more potent than the compound where P is methyl,MMP,approximately 20 times
CNC(=O)[C@H](Cc1ccc(OC)cc1)NC(=O)[C@H](CC(C)C)C(C)S (some centres unmarked) [compound where P is methyl],times more potent than the compound where P is hydrogen,MMP,approximately 20 times
"(2R,4R)-4-Hydroxy-2-isobutyl-5-tritylsulfanylpentanoic acid ((1S)-2,2-dimethyl-1-methylcarbamoylpropyl)amide [Example 35]",in vivo % Collangenase I inhibition,Collangenase I; 50 mpk (milligrams/kilogram),0.44%
